Experimental data reported in ChEMBL document CHEMBL1122588 (J Med Chem, 1984).
Values joined by “and” are separate entries in the source; they are usually repeats but may differ in a detail not shown here. Equal entries are not always repeated.

Assays:
[1] = system: L1210; experiment: cells; conditions: Mus musculus, L1210, 72 h, read-out: ID50
Description: In vitro concentration required to reduce the murine L1210 leukemia cells in cultures to 50% after a period of 72 hr.

[2] = system: P388; experiment: animal or person; conditions: Mus musculus
Description: In vivo antitumor activity in mice bearing P388 leukemia cells at an optimal dose of 100 mg/kg given on days 1,5,9

[3] = system: P388; experiment: animal or person; conditions: Mus musculus; remark: listed apart in the source
Description: In vivo antitumor activity in mice bearing P388 leukemia cells at an optimal dose of 300 mg/kg given on days 1,5,9.

[4] = system: Nucleic Acid
[5] = system: P388; experiment: animal or person; conditions: Mus musculus; remark: listed apart in the source
Description: In vivo antitumor activity in mice bearing P388 leukemia cells at an optimal dose of 100 mg/kg given on days 1,5,9.

[6] = system: P388; experiment: animal or person; conditions: Mus musculus; remark: listed apart in the source
Description: In vivo antitumor activity in mice bearing P388 leukemia cells at an optimal dose of 45 mg/kg given on days 1,5,9

[7] = system: P388; experiment: animal or person; conditions: Mus musculus; remark: listed apart in the source
Description: In vivo antitumor activity in mice bearing P388 leukemia cells at an optimal dose of 30 mg/kg given on days 1,5,9

[8] = system: P388; experiment: animal or person; conditions: Mus musculus; remark: listed apart in the source
Description: In vivo antitumor activity in mice bearing P388 leukemia cells at an optimal dose of 45 mg/kg given on days 1,5,9.

[9] = system: P388; experiment: animal or person; conditions: Mus musculus; remark: listed apart in the source
Description: In vivo antitumor activity in mice bearing P388 leukemia cells at an optimal dose of 65 mg/kg given on days 1,5,9

[10] = system: P388; experiment: animal or person; conditions: Mus musculus; remark: listed apart in the source
Description: In vivo antitumor activity in mice bearing P388 leukemia cells at an optimal dose of 20 mg/kg given on days 1,5,9

[11] = physchem; conditions: Intestine
Description: Compound was evaluated for its rate of absorption from the intestine and pKa value was determined, lower value indicate high absorption from gastrointestinal tract.

[12] = system: P388; experiment: animal or person; conditions: Mus musculus; remark: listed apart in the source
Description: In vivo antitumor activity in mice bearing P388 leukemia cells at an optimal dose of 65 mg/kg given on days 1,5,9.

[13] = system: P388; experiment: animal or person; conditions: Mus musculus; remark: listed apart in the source
Description: In vivo antitumor activity in mice bearing P388 leukemia cells at an optimal dose of 13.3 mg/kg given on days 1,5,9.

[14] = system: P388; experiment: animal or person; conditions: Mus musculus; remark: listed apart in the source
Description: In vivo antitumor activity in mice bearing P388 leukemia cells at an optimal dose of 30 mg/kg given on days 1,5,9.

[15] = system: P388; experiment: animal or person; conditions: Mus musculus; remark: listed apart in the source
Description: In vivo antitumor activity in mice bearing P388 leukemia cells at an optimal dose of 20 mg/kg given on days 1,5,9.

[16] = system: P388; experiment: animal or person; conditions: Mus musculus; remark: listed apart in the source
Description: In vivo antitumor activity in mice bearing P388 leukemia cells at an optimal dose of 50 mg/kg given on days 1,5,9

SMILES	IC50 [1] [nM]	Log K [4]	ILS at 100 mg/kg [5] [%]	pKa [11]	other results
CNC(=O)c1cccc2c(Nc3ccc(NS(C)(=O)=O)cc3OC)c3ccccc3nc12	270				ILS at 100 mg/kg [2]: 128%; ILS at 300 mg/kg [3]: 127%
COc1cc(NS(C)(=O)=O)ccc1Nc1c2cccc(OC)c2nc2c(OC)cccc12	65	6.32 and 6.4	48		ILS at 45 mg/kg [6]: 99%
COc1cc(NS(C)(=O)=O)ccc1Nc1c2ccccc2nc2c(OC)cccc12	40	5.94 and 6			ILS at 30 mg/kg [7]: 139%; ILS at 45 mg/kg [8]: 23%
COc1cc(NS(C)(=O)=O)ccc1Nc1c2ccccc2nc2c(C)cccc12	30	6.03 and 5.96			ILS at 65 mg/kg [9]: 47%; ILS at 20 mg/kg [10]: 143%
COc1cc(NS(C)(=O)=O)ccc1Nc1c2cccc(C)c2nc2c(OC)cccc12	30	6.21 and 6.19	69	6.9	ILS at 30 mg/kg [7]: 109%
COc1cc(NS(C)(=O)=O)ccc1Nc1c2ccccc2nc2ccccc12 [AMSACRINE]		5.57 and 5.65			ILS at 65 mg/kg [12]: 63%; ILS at 13.3 mg/kg [13]: 78%
COc1cc(NS(C)(=O)=O)ccc1Nc1c2cccc(C)c2nc2c(C(N)=O)cccc12	47	6.62 and 6.92	25	6.43	ILS at 20 mg/kg [10]: 113%
COc1cc(NS(C)(=O)=O)ccc1Nc1c2ccccc2nc2c(C(N)=O)cccc12	270		11		ILS at 30 mg/kg [14]: 113%
CNC(=O)c1cccc2c(Nc3ccc(NS(C)(=O)=O)cc3OC)c3cccc(OC)c3nc12	17	6.24 and 6.65	34	6.55	ILS at 20 mg/kg [15]: 139%
CNC(=O)c1cccc2c(Nc3ccc(NS(C)(=O)=O)cc3OC)c3cccc(C)c3nc12 [ASULACRINE]				6.4	ILS at 20 mg/kg [10]: 200%; ILS at 50 mg/kg [16]: 164%
COc1cc(NS(C)(=O)=O)ccc1Nc1c2cccc(C)c2nc2c(C)cccc12	110	6.14 and 6.46	86		ILS at 45 mg/kg [8]: 135%
